{
  "source": "patent US9340556B2",
  "about": "“Antibacterial compounds” (GLAXO GROUP LIMITED, priority 2011, dated 2016)",
  "assay": "Antimicrobial activity assay: whole-cell broth microdilution MIC (CLSI M7-A7)",
  "format": "cell-based",
  "details": "for at least one strain of one organism listed, serial two-fold dilutions 0.064 to 64 μg/ml, in the presence of 20 uM human apo-Transferrin, tested in at least one exemplified salt or free base form, read-out: MIC (minimum inhibitory concentration)",
  "method": "Antimicrobial Activity Assay\nWhole-cell antimicrobial activity was determined by broth microdilution using the Clinical and Laboratory Standards Institute (CLSI) recommended procedure, Document M7-A7, “Methods for Dilution Susceptibility Tests for Bacteria that Grow Aerobically”. In some cases, broth microdilution MICs were determined using IsoSensitest broth (Oxoid) in place of CLSI recommended cation adjusted Mueller-Hinton broth. The compounds were tested in serial two-fold dilutions ranging from 0.064 to 64 μg/ml in the presence of 20 uM human apo-Transferrin (Sigma T-1147).\nCompounds were evaluated against Gram-negative organisms selected from Escherichia coli, Pseudomonas aeruginosa, Proteus mirabilis, Enterobacter cloacae, Enterobacter aerogenes, Klebsiella pneumoniae, Stenotrophomonas maltophilia, Acinetobacter baumanii, Serratia marascens, Citrobacter freundii, and Klebsiella oxytoca.\nThe minimum inhibitory concentration (MIC) was determined as the lowest concentration of compound that inhibited visible growth. A mirror reader was used to assist in determining the MIC endpoint.\nEach of the listed Examples 1 to 56 and 59 to 61 identified in the present application, were tested in at least one exemplified salt or free base form.",
  "note": "Structures can show the parent of a compound that is named as a salt.",
  "data": [
    {"smiles": "Cn1cc(O)c(=O)c2cc(C[N+]3(CC4=C(C(=O)[O-])N5C(=O)[C@@H](NC(=O)/C(=N\\O[C@@H](CC(=O)O)C(=O)O)c6csc(N)n6)[C@H]5SC4)CCCC3)ccc21", "note": "[Example 5, (6R,7R)-7-((Z)-2-(2-aminothiazol-4-yl)-2-(((S)-1,2-dicarboxyethoxy)imino)acetamido)-3-((1-((3-hydroxy-1-methyl-4-oxo-1,4-dihydroquinolin-6-yl)methyl)pyrrolidin-1-ium-1-yl)methyl)-8-oxo-5-thia-1-azabicyclo[4.2.0]oct-2-ene-2-carboxylate, 3 Sodium salt]", "values": [
      {"measurement": "MIC", "result": "≤ 8", "unit": "µg/mL"}
    ]}
  ]
}
